Data set [1] deals with myometrial smooth muscle cells. The experiment in a line: CBiO Assay (contraction of magnetically 3D bioprinted rings). The class given is cell-based, human. Here is the method:
We developed an assay, the CBiO Assay (contractility BiO Assay) to mimic uterine contractility in vitro. The basis of this assay is one in which cells are magnetically 3D bioprinted into 3D rings (e.g., 0.125″ outer diameter, 0.0625″ inner diameter) in 384-well plates. After printing, the magnetic field is removed, and these rings contract immediately (<24 h), as cells within the ring contract, rearrange, and compact the ring.
Along with this CBiO assay, a mobile device-based imaging system (n3Dock) was used to image and measure whole plates of rings (FIG. 3). This imaging system is driven by an iPod Touch (Apple Computer, CA) that was programmed to automatically image plates at regular intervals (≧1 s) for the length of the experiment using a freely available app for download (Experimental Assistant, Nano3D Biosciences). Using the n3Dock to image rings is possible given the fine camera resolution of the iPod (5 MP, resolution=250 μm) (Timm, 2013), and the brown color of the ring imparted by the NS that provides contrast against the lightness of the surrounding media. As a result, the iPod captures images of whole plates in a compact dock that fits within most standard incubators. Of course, any smart phone or pad or tablet equipped with a camera could be used herein.
From the same tissue, cells were grown in vitro as monolayer cultures and then harvested. […]

Another data set deals with myometrial strips. The experiment in a line: Wire myography of ex vivo myometrial strips in organ bath. Conditions: 1 μM-1 mM. More on the design: species or system human. Here is the method:
Ex vivo tissue was also tested for comparison to the CBiO Assay. Uterine biopsies obtained from cesarean sections were cut into myometrial strips (10×2×2 mm) mounted in an organ chamber system bath (10 mL) containing Kreb's buffer maintained at 37° C. and bubbled with 5% CO2/95% O2 to maintain the pH at 7.4. Eight uterine strips were obtained form each individual biopsy. The strips were equilibrated for 1 h starting from a resting tension of 1 g and spontaneous uterine contractility was stabilized for isometric tension recording. […] Two uterine strips were exposed to each tocolytic drug, thereby conducting duplicate experiments for each drug. […] All tocolytic doses used were based from previous human myometrial contractility studies. […] For the ex vivo tissue contractile activity, myometrial strips were mounted in a myograph organ bath system. […] The contractile inhibitory response was the area change at 5 h for the CBiO Assay, and the AUC for myography (FIG. 7). The contractile inhibitory response (CIR) in this experiment was defined as the percent change in ring image pixels before and after drug exposure. Thus, FIG. 7 reports a change in size rather than a rate. However, rates can be reported if desired.

The conditions of data set [2]: cited from earlier work.
The subject of the next data set is preterm labor. Conditions: cited from earlier work; for Onsef of action: clinical dose per Table 1; for Delay in delivery for 48 hrs: clinical treatment of preterm labor.

SMILES strings stand for the structures. Read-outs that look alike come from different tables or passages of the source. Bridge positions count the residues as written; N and C are the ends. Square brackets hold non-standard residues; d marks the D form. Peptide text beside a SMILES is read from it. Orn = NCCC[C@H](N)C(=O)O; Mpa = O=C(O)CCS

For `COc1ccc2c(c1)c(CC(=O)O)c(C)n2C(=O)c1ccc(Cl)cc1` [Indomethacin], the “IND/NIF preference ratio (PR)” value came to 0.75 in data set [1] (Patient 1, area change at 5 h); 0.97 in data set [1] (Patient 2, area change at 5 h); 0.48 in the data set on myometrial strips (Patient 1, AUC); 0.92 with myometrial strips (Patient 2, AUC). For the same compound, the “Cmax (Peak plasma concentration)” value in data set [2] (clinical dose 50 mg oral, then 25 mg every 6 hrs, as recommended by the manufacturer) was 2 µg/mL. In the data set with preterm labor (as recommended by the manufacturer), the Onsef of action was 2 h. In the data set on preterm labor, the “Delay in delivery for 48 hrs” value is 90-94%^58-61.
`CCOc1ccc(C[C@H]2NC(=O)CCSSC[C@@H](C(=O)N3CCC[C@H]3C(=O)N[C@@H](CCCN)C(=O)NCC(N)=O)NC(=O)[C@H](CC(N)=O)NC(=O)[C@H]([C@@H](C)O)NC(=O)[C@H]([C@@H](C)CC)NC2=O)cc1` [Atosiban] ([Mpa][dY](Et)ITNCP[Orn]G-NH2; disulfide 1-6): in data set [2] (clinical dose per Table 1), the “Cmax (Peak plasma concentration)” value is 442 ng/ml^63. In addition, in the data set with preterm labor, the Onsef of action was 1 hr^63 and the “Delay in delivery for 48 hrs” value is 93%^64.

The values above are taken from patent US20170089887A1, “CONTRACTILITY ASSAY” (Nano3D Biosciences, Inc, priority 2011, published 2017).
